Laboratory results reported in patent US9561228B2 (Celgene Avilomics Research, Inc., priority 2013, dated 2017).

Experiments:
[1] = test system: ERK1/2 phosphorylation of p90RSK in HT29 cells; experiment: pRSK MSD Assay in HT29 cells; assay type: cell-based; details: Homo sapiens, HT-29, read-out: ERK1/ERK2 PRSK MSD HT29 EC50
Summary of the method: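 Phospho-RSK level, read by electrochemiluminescence on RSK-antibody-coated MSD plates with a phospho-RSK/Sulfo-tag detection pair, reports cellular ERK1/2 activity. HT29 cells, kept overnight in 0.1% FBS medium, were exposed to compound for 120 min at 37° C before lysis.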

[2] = test system: ERK1/2 phosphorylation of p90RSK in A375 cells; experiment: Detection of total and phosphor-RSK by MSD ELISA (A375); assay type: cell-based; details: Homo sapiens, A-375, read-out: ERK1/ERK2 PRSK A375 EC50
Summary of the method: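 Electrochemiluminescent MSD ELISA: common RSK capture antibody, with pRSK Ser380 or total RSK detection antibodies plus SulfoTag secondaries. Samples were lysates of A375 cells exposed to compound for 2 h at 37° C after overnight culture in 0.1% FBS DMEM.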

| EC50 [1] | EC50 [2] | Compound |
| --- | --- | --- |
| 101 to 500 nM | 101 to 500 nM | C=CC(=O)Nc1cc(C)ccc1Nc1nc(Nc2cc(OCCOC)ncc2C)ncc1C(F)(F)F [Compound I-359, N-(2-((2-((2-(2-methoxyethoxy)-5-methylpyridin-4-yl)amino)-5-(trifluoromethyl)pyrimidin-4-yl)amino)-5-methylphenyl)acrylamide] |
| > 1000 nM | > 1000 nM | C=CC(=O)Nc1cc(C)ccc1Nc1nc(Nc2cc(C(F)(F)F)nn2C)ncc1C(F)(F)F [Compound I-419, N-(5-methyl-2-((2-((1-methyl-3-(trifluoromethyl)-1H-pyrazol-5-yl)amino)-5-(trifluoromethyl)pyrimidin-4-yl)amino)phenyl)acrylamide] |
| > 1000 nM | > 1000 nM | C#CC(=O)Nc1cc(C)ccc1Nc1nc(Nc2cc(OC)ncc2C)ncc1C(F)(F)F [Compound I-345, N-(2-((2-((2-methoxy-5-methylpyridin-4-yl)amino)-5-(trifluoromethyl)pyrimidin-4-yl)amino)-5-methylphenyl)propiolamide] |
| < 100 nM | < 100 nM | C=CC(=O)Nc1cc(CN2CCN(C(=O)c3ccccn3)CC2)ccc1Nc1nc(Nc2cc(OC)ncc2C)ncc1C(F)(F)F [Compound I-388, N-(2-((2-((2-methoxy-5-methylpyridin-4-yl)amino)-5-(trifluoromethyl)pyrimidin-4-yl)amino)-5-((4-picolinoylpiperazin-1-yl)methyl)phenyl)acrylamide] |
| 101 to 500 nM | 101 to 500 nM | C=CC(=O)Nc1c(Nc2nc(Nc3cc(OC)ncc3C)ncc2C(F)(F)F)ccc(C)c1F [Compound I-367, N-(2-fluoro-6-((2-((2-methoxy-5-methylpyridin-4-yl)amino)-5-(trifluoromethyl)pyrimidin-4-yl)amino)-3-methylphenyl)acrylamide] |
| 501 to 999 nM | > 1000 nM | C=CC(=O)Nc1cc(CN2CCN(C(=O)CO)CC2)ccc1Nc1nc(Nc2nc(OC)ncc2C)ncc1C(F)(F)F [Compound I-386, N-(5-((4-(2-hydroxyacetyl)piperazin-1-yl)methyl)-2-((2-((2-methoxy-5-methylpyrimidin-4-yl)amino)-5-(trifluoromethyl)pyrimidin-4-yl)amino)phenyl)acrylamide] |
| 101 to 500 nM | > 1000 nM | C=CC(=O)Nc1cc(CN2CCN(C(=O)c3ccccn3)CC2)ccc1Nc1nc(Nc2nc(OC)ncc2C)ncc1C(F)(F)F [Compound I-391, N-(2-((2-((2-methoxy-5-methylpyrimidin-4-yl)amino)-5-(trifluoromethyl)pyrimidin-4-yl)amino)-5-((4-picolinoylpiperazin-1-yl)methyl)phenyl)acrylamide] |
| < 100 nM | < 100 nM | C=CC(=O)Nc1cc(CN2CCN(C(=O)c3cnccn3)CC2)ccc1Nc1nc(Nc2cc(OC)ncc2C)ncc1C(F)(F)F [Compound I-390, N-(2-((2-((2-methoxy-5-methylpyridin-4-yl)amino)-5-(trifluoromethyl)pyrimidin-4-yl)amino)-5-((4-(pyrazine-2-carbonyl)piperazin-1-yl)methyl)phenyl)acrylamide] |
| > 1000 nM | < 100 nM | C=CC(=O)Nc1cc(O[C@@H](C)C(N)=O)ccc1Nc1nc(Nc2cc(OC)ncc2C)ncc1C(F)(F)F [Compound I-412, (S)—N-(5-((1-amino-1-oxopropan-2-yl)oxy)-2-((2-((2-methoxy-5-methylpyridin-4-yl)amino)-5-(trifluoromethyl)pyrimidin-4-yl)amino)phenyl)acrylamide] |
| < 100 nM | < 100 nM | C=CC(=O)Nc1cc(C)c(F)cc1Nc1nc(Nc2nc(OC)ncc2Cl)ncc1C(F)(F)F [Compound I-374, N-(2-((2-((5-chloro-2-methoxypyrimidin-4-yl)amino)-5-(trifluoromethyl)pyrimidin-4-yl)amino)-4-fluoro-5-methylphenyl)acrylamide] |
| 101 to 500 nM | 101 to 500 nM | C=CC(=O)Nc1cc(C)ccc1Nc1nc(Nc2nc(OC)nc(OC)n2)ncc1C(F)(F)F [Compound I-371, N-(2-((2-((4,6-dimethoxy-1,3,5-triazin-2-yl)amino)-5-(trifluoromethyl)pyrimidin-4-yl)amino)-5-methylphenyl)acrylamide] |
| < 100 nM | < 100 nM | C=CC(=O)Nc1cc(C)ccc1Nc1nc(Nc2cc(OCCO)ncc2C)ncc1C(F)(F)F [Compound I-376, N-(2-((2-((2-(2-hydroxyethoxy)-5-methylpyridin-4-yl)amino)-5-(trifluoromethyl)pyrimidin-4-yl)amino)-5-methylphenyl)acrylamide] |
| 101 to 500 nM | 101 to 500 nM | C=CC(=O)Nc1cc(CCc2cnn(C)c2)ccc1Nc1nc(Nc2cc(OC)ncc2C)ncc1C(F)(F)F [Compound I-427, N-(2-((2-((2-methoxy-5-methylpyridin-4-yl)amino)-5-(trifluoromethyl)pyrimidin-4-yl)amino)-5-(2-(1-methyl-1H-pyrazol-4-yl)ethyl)phenyl)acrylamide] |
| > 1000 nM | > 1000 nM | C=CC(=O)Nc1cc(C)ccc1Nc1nc(Nc2cc(C(N)=O)nn2C)ncc1C(F)(F)F [Compound I-423, 5-((4-((2-acrylamido-4-methylphenyl)amino)-5-(trifluoromethyl)pyrimidin-2-yl)amino)-1-methyl-1H-pyrazole-3-carboxamide] |
| < 100 nM | 101 to 500 nM | C=CC(=O)Nc1cc(C)ccc1Nc1nc(Nc2cc(OC)nnc2OC)ncc1C(F)(F)F [Compound I-372, N-(2-((2-((3,6-dimethoxypyridazin-4-yl)amino)-5-(trifluoromethyl)pyrimidin-4-yl)amino)-5-methylphenyl)acrylamide] |
| 501 to 999 nM | > 1000 nM | C=CC(=O)Nc1cc(C)ccc1Nc1nc(Nc2c[nH]c(=O)cc2C)ncc1C(F)(F)F [Compound I-370, N-(5-methyl-2-((2-((4-methyl-6-oxo-1,6-dihydropyridin-3-yl)amino)-5-(trifluoromethyl)pyrimidin-4-yl)amino)phenyl)acrylamide] |
| > 1000 nM | > 1000 nM | C=CC(=O)Nc1cc(C)ccc1Nc1nc(Nc2cc(OC(C)C)ncc2C)ncc1C(F)(F)F [Compound I-369, N-(2-((2-((2-isopropoxy-5-methylpyridin-4-yl)amino)-5-(trifluoromethyl)pyrimidin-4-yl)amino)-5-methylphenyl)acrylamide] |
| 501 to 999 nM | > 1000 nM | C=CC(=O)Nc1cc(O[C@H](C)C(=O)N2CCN(C(C)=O)CC2)ccc1Nc1nc(Nc2cc(OC)ncc2C)ncc1C(F)(F)F [Compound I-409, (R)—N-(5-((1-(4-acetylpiperazin-1-yl)-1-oxopropan-2-yl)oxy)-2-((2-((2-methoxy-5-methylpyridin-4-yl)amino)-5-(trifluoromethyl)pyrimidin-4-yl)amino)phenyl)acrylamide] |
| < 100 nM | < 100 nM | C=CC(=O)Nc1cc(O[C@H](C)C(N)=O)ccc1Nc1nc(Nc2cc(OC)ncc2C)ncc1C(F)(F)F [Compound I-413, (R)—N-(5-((1-amino-1-oxopropan-2-yl)oxy)-2-((2-((2-methoxy-5-methylpyridin-4-yl)amino)-5-(trifluoromethyl)pyrimidin-4-yl)amino)phenyl)acrylamide] |
| < 100 nM | < 100 nM | C=CC(=O)Nc1cc(CN2CCN(S(C)(=O)=O)CC2)ccc1Nc1nc(Nc2cc(OC)ncc2C)ncc1C(F)(F)F [Compound I-384, N-(2-((2-((2-methoxy-5-methylpyridin-4-yl)amino)-5-(trifluoromethyl)pyrimidin-4-yl)amino)-5-((4-(methylsulfonyl)piperazin-1-yl)methyl)phenyl)acrylamide] |
| < 100 nM | < 100 nM | C=CC(=O)Nc1cc(OCC(N)=O)ccc1Nc1nc(Nc2cc(OC)ncc2C)ncc1C(F)(F)F [Compound I-398, N-(5-(2-amino-2-oxoethoxy)-2-((2-((2-methoxy-5-methylpyridin-4-yl)amino)-5-(trifluoromethyl)pyrimidin-4-yl)amino)phenyl)acrylamide] |
| > 1000 nM | > 1000 nM | C=CC(=O)Nc1ccc(OCC(N)=O)cc1Nc1nc(NC2CCOCC2)ncc1C(F)(F)F [Compound I-395, N-(4-(2-amino-2-oxoethoxy)-2-((2-((tetrahydro-2H-pyran-4-yl)amino)-5-(trifluoromethyl)pyrimidin-4-yl)amino)phenyl)acrylamide] |
| 101 to 500 nM | 101 to 500 nM | C=CC(=O)Nc1cc(C)ccc1Nc1nc(Nc2nc(OC)ncc2F)ncc1C(F)(F)F [Compound I-357, N-(2-((2-((5-fluoro-2-methoxypyrimidin-4-yl)amino)-5-(trifluoromethyl)pyrimidin-4-yl)amino)-5-methylphenyl)acrylamide] |
| 501 to 999 nM | 501 to 999 nM | C=CC(=O)Nc1cc(CN2CCOCC2)ccc1Nc1nc(Nc2cc(OC)ncc2C)ncc1C(F)(F)F [Compound I-399, N-(2-((2-((2-methoxy-5-methylpyridin-4-yl)amino)-5-(trifluoromethyl)pyrimidin-4-yl)amino)-5-(morpholinomethyl)phenyl)acrylamide] |
| < 100 nM | 101 to 500 nM | C=CC(=O)Nc1cc(C)ccc1Nc1nc(Nc2cc(OC)cnc2Cl)ncc1C(F)(F)F [Compound I-361, N-(2-((2-((2-chloro-5-methoxypyridin-3-yl)amino)-5-(trifluoromethyl)pyrimidin-4-yl)amino)-5-methylphenyl)acrylamide] |
| > 1000 nM | 101 to 500 nM | C=CC(=O)Nc1cc(C)ccc1Nc1nc(Nc2ccc3ocnc3c2)ncc1C(F)(F)F [Compound I-375, N-(2-((2-(benzo[d]oxazol-5-ylamino)-5-(trifluoromethyl)pyrimidin-4-yl)amino)-5-methylphenyl)acrylamide] |
